One experiment concerns the target T1, Liver GK (Homo sapiens, UniProt P35557).
T1 construct: (His)6; made in house; host or cells: Escherichia coli
T1 sequence (P35557 1-466 isoform P35557-2): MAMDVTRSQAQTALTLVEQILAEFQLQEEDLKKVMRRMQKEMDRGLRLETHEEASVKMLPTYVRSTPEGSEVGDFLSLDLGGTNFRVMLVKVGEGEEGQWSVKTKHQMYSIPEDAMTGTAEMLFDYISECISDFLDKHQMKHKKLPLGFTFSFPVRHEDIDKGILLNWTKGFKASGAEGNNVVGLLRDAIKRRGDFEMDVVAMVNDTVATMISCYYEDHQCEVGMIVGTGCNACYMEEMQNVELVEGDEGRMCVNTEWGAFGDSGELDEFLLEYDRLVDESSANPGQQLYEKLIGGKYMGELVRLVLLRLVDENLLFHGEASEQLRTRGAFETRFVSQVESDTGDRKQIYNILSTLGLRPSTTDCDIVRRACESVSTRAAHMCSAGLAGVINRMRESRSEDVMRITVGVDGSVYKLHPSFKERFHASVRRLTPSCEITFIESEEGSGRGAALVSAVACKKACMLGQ
The experiment in a line: Glucokinase enzyme assay, liver GK. In kind it is biochemical. To be noted: for EC50: concentration that produces 50% activation above the vehicle control; for EC100%: concentration that produces 100% activation above the vehicle control; for activation at 50 µM: percentage increase in GK activity above vehicle control, compound 50 μM, 12 mM glucose. The source says: (§1) An enzymatic Glucokinase (GK) assay using purified recombinant human liver/pancreas enzyme was used to evaluate the effects of potential small molecule modulators.
(§2) In this assay, GK catalyzes glucose phosphorylation in the presence of ATP. The product of this reaction, glucose-6-phosphate, was then oxidized by an excess of glucose-6-phosphate dehydrogenase to produce gluconate-6-phosphate with concomitant reduction of nicotinamide adenine dinucleotide (NAD). […] Human GK (Liver/Pancreas) was expressed in Escherichia coli as a (His) 6-tagged fusion protein and was purified by metal chelate affinity chromatography. The assay was performed in a final incubation volume of 80 μl in a 96-well clear low UV absorption plates. The incubation mixture consisted of 25 mM HEPES, 2 mM MgSO4, 1 mM dithiothreotol (DTT), 1 mg/mL bovine serum albumin (BSA), 1 mM ATP, 1 mM NAD, and 12 mM glucose, 10 units per mL glucose-6-phosphate dehydrogenase, and +/−300 ng per mL GK. For determination of the affinity (Km) and Vmax, different concentrations of glucose ranging from 0.5 mM to 40 mM were used in the assay; see Grimsby, J., Sarabu, R.; Grippo, J. F.; et. al. Science 2003, 301, 370-373. Production of reduced NAD (Nicotinamide Adenine Dinucleotide) was measured as changes in absorption at 340 nm in 96-well plate reader (Envision model #2101 Multilabel Plate reader). % Activation @ 50 μM was calculated as the percentage increase in GK activity above the vehicle control with the effective concentration of the compound being 50 μM. EC50% (μM) was calculated as the effective concentration of the compound that produces 50% activation above the vehicle control, and EC100% (μM) was calculated as the effective concentration of the compound that produces 100% activation above the vehicle control.

The next experiment has as its target T2, Pancreas GK (Homo sapiens, UniProt P35557).
T2 construct: (His)6; made in house; host or cells: Escherichia coli
T2 sequence (P35557 1-465): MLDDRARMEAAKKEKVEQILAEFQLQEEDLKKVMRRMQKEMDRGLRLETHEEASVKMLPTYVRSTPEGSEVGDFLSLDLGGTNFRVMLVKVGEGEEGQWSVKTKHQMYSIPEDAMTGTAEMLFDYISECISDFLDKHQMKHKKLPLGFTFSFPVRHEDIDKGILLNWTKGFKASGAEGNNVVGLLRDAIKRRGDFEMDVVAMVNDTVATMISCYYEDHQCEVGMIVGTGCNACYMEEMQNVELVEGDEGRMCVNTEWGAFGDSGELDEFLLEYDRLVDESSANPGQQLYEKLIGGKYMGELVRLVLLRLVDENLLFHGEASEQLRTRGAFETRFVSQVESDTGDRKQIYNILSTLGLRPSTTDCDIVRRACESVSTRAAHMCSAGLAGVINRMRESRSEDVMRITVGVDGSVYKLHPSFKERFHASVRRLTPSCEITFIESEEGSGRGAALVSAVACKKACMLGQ
The experiment in a line: Glucokinase enzyme assay, pancreas GK. The class given is biochemical. To be noted: for EC50: concentration that produces 50% activation above the vehicle control; for EC100%: concentration that produces 100% activation above the vehicle control; for activation at 50 µM: percentage increase in GK activity above vehicle control, compound 50 μM, 12 mM glucose.
Description: as §1, §2

The structures appear in SMILES notation. Values joined by “and” are separate entries in the source; they are usually repeats but may differ in a detail not shown here. Identical values can stand only once.

Regarding `COc1cc(CN2C(=O)C(C)=C(C)C2SCC(=O)Nc2ccccn2)cc(OC)c1` (stereo not shown) [Compound 29, 2-[1-(3,5-Dimethoxy-benzyl)-3,4-dimethyl-5-oxo-2,5-dihydro-1H-pyrrol-2-ylsulfanyl]-N-pyridin-2-yl-acetamide], on Liver GK, the EC50 came to 7.7 µM and the “EC100%” value was 26.1 µM. Further, at Pancreas GK, the EC50 is 11.8 µM and the “EC100%” value stood at 41.4 µM.

Turning to `CCc1ccc(CN2C(=O)C(C)=C(C)C2SCC(=O)Nc2ccccn2)cc1` (stereo not shown) [Compound 26, 2-[1-(4-Ethyl-benzyl)-3,4-dimethyl-5-oxo-2,5-dihydro-1H-pyrrol-2-ylsulfanyl]-N-pyridin-2-yl-acetamide], on Liver GK, the EC50 worked out at 15.3 µM, the “EC100%” value is 35.9 µM and the activation at 50 µM worked out at 154%. Further, at Pancreas GK, the EC50 is 24 µM and the activation at 50 µM is 102%.

`CC1=C(C)C(SCC(=O)Nc2ccccn2)N(Cc2ccc3c(c2)CCO3)C1=O` (stereo not shown) [Compound 20, 2-[1-(2,3-Dihydro-benzofuran-5-ylmethyl)-3,4-dimethyl-5-oxo-2,5-dihydro-1H-pyrrol-2-ylsulfanyl]-N-pyridin-2-yl-acetamide]: at Liver GK, the EC50 amounted to 2.78 µM and the “EC100%” value was 6.61 µM. Also, at Pancreas GK, the EC50 turned out to be 3.23 µM and the “EC100%” value came out at 8.87 µM.

On to `COC(=O)c1ccc(NC(=O)CSC2C(C)=C(C)C(=O)N2Cc2ccc(OC)cc2)nc1` (stereo not shown) [Compound 1, 6-{2-[1-(4-Methoxy-benzyl)-3,4-dimethyl-5-oxo-2,5-dihydro-1H-pyrrol-2-ylsulfanyl]-acetylamino}-nicotinic acid methyl ester], for which, at Liver GK, the EC50 is 0.39 µM and 0.26 µM; the “EC100%” value was 1.46 µM. In addition, on Pancreas GK, the EC50 came to 0.64 µM, the “EC100%” value was 2.23 µM and the activation at 50 µM was found to be 287%.

Turning to `CC1=C(C)C(SCC(=O)Nc2ccccn2)N(Cc2cccs2)C1=O` (stereo not shown) [Compound 24, 2-(3,4-Dimethyl-5-oxo-1-thiophen-2-ylmethyl-2,5-dihydro-1H-pyrrol-2-ylsulfanyl)-N-pyridin-2-yl-acetamide], on Liver GK, the EC50 came to 8.4 µM, the “EC100%” value is 26.7 µM and the activation at 50 µM came out at 172%. In addition, on Pancreas GK, the EC50 was 13.6 µM, the “EC100%” value was determined as 37.3 µM and the activation at 50 µM is 124%.

In the case of `COc1ccc(CN2C(=O)C(C)=C(C)C2OCC(=O)Nc2ccccn2)cc1` (stereo not shown) [Compound 30, 2-[1-(4-Methoxy-benzyl)-3,4-dimethyl-5-oxo-2,5-dihydro-1H-pyrrol-2-yloxy]-N-pyridin-2-yl-acetamide], on Liver GK, the EC50 stood at 34.5 µM and the “EC100%” value was greater than 50 µM. At Pancreas GK, the EC50 was greater than 50 µM and the “EC100%” value is greater than 50 µM.

As to `COc1ccc(CN2C(=O)C=C(C)C2SCC(=O)Nc2ccccn2)cc1` (stereo not shown) [Compound 19, 2-[1-(4-Methoxy-benzyl)-3-methyl-5-oxo-2,5-dihydro-1H-pyrrol-2-ylsulfanyl]-N-pyridin-2-yl-acetamide], at Liver GK, the EC50 came to 13.8 µM and the “EC100%” value is 30.5 µM. Moreover, at Pancreas GK, the EC50 was 15.2 µM and the “EC100%” value worked out at 47.3 µM.

As to `COc1ccc(CN2C(=O)C(C)=C(C)C2SCC(=O)Nc2ccc(C(N)=O)cn2)cc1` (stereo not shown) [Compound 18], at Liver GK, the EC50 stood at 1.13 µM, the “EC100%” value was determined as 3.61 µM and the activation at 50 µM was 217%. Besides, on Pancreas GK, the EC50 is 3.51 µM, the “EC100%” value came out at 12.02 µM and the activation at 50 µM was determined as 167%.

In the case of `CC1=C(C)C(SCC(=O)Nc2ccccn2)N(Cc2ccc(C(C)C)cc2)C1=O` (stereo not shown) [Compound 25, 2-[1-(4-Isopropyl-benzyl)-3,4-dimethyl-5-oxo-2,5-dihydro-1H-pyrrol-2-ylsulfanyl]-N-pyridin-2-yl-acetamide], at Liver GK, the EC50 worked out at 6.3 µM, the “EC100%” value was determined as 28.5 µM and the activation at 50 µM is 180%. For the same compound, at Pancreas GK, the EC50 came to 14.7 µM, the “EC100%” value stood at 44.9 µM and the activation at 50 µM was 130%.

For the compound `COC(=O)c1ccc(NC(=O)COC2C(C)=C(C)C(=O)N2Cc2ccc(OC)cc2)nc1` (stereo not shown) [Compound 27, 6-{2-[1-(4-Methoxy-benzyl)-3,4-dimethyl-5-oxo-2,5-dihydro-1H-pyrrol-2-yloxy]-acetylamino}-nicotinic acid methyl ester], on Liver GK, the EC50 turned out to be 14.1 µM, the “EC100%” value was greater than 50 µM and the activation at 50 µM came out at 90%. On Pancreas GK, the EC50 amounted to 20 µM and the “EC100%” value was greater than 50 µM.

Take `COc1ccc(CN2C(=O)C(C)=C(C)C2SCC(=O)Nc2cc(C)ccn2)cc1` (stereo not shown) [Compound 21, 2-[1-(4-Methoxy-benzyl)-3,4-dimethyl-5-oxo-2,5-dihydro-1H-pyrrol-2-ylsulfanyl]-N-(4-methyl-pyridin-2-yl)-acetamide]: the results for the EC50 at Liver GK and on Pancreas GK were 4.73 µM and 7.12 µM, respectively. Also, the “EC100%” value stood at 12.68 µM at Liver GK and 19.43 µM at Pancreas GK.

For `COc1ccc(CN2C(=O)C(C)=C(C)C2OCC(=O)Nc2nccs2)cc1` (stereo not shown) [Compound 31, 2-[1-(4-Methoxy-benzyl)-3,4-dimethyl-5-oxo-2,5-dihydro-1H-pyrrol-2-yloxy]-N-thiazol-2-yl-acetamide], the activation at 50 µM on Liver GK is 21%; on Pancreas GK, 3%.

With `COc1ccc(CN2C(=O)C(C)=C(C)C2SCC(=O)Nc2cccc(C)n2)cc1` (stereo not shown) [Compound 23, 2-[1-(4-Methoxy-benzyl)-3,4-dimethyl-5-oxo-2,5-dihydro-1H-pyrrol-2-ylsulfanyl]-N-(6-methyl-pyridin-2-yl)-acetamide], at Liver GK, the EC50 stood at 6.23 µM and the “EC100%” value turned out to be 13.78 µM. On Pancreas GK, the EC50 was 8.13 µM and the “EC100%” value worked out at 20.28 µM.

As for `COc1ccc(CN2C(=O)C(C)=C(C)[C@H]2S[C@H](C)C(=O)Nc2ccccn2)cc1` (stereo in doubt) [Compound 32, 2-[1-(4-Methoxy-benzyl)-3,4-dimethyl-5-oxo-2,5-dihydro-1H-pyrrol-2-ylsulfanyl]-N-pyridin-2-yl-propionamide], the results for the activation at 50 µM on Liver GK and at Pancreas GK were 37% and 24%, respectively.

For `CCc1ccnc(NC(=O)CSC2C(C)=C(C)C(=O)N2Cc2ccc(OC)cc2)c1` (stereo not shown) [Compound 22, N-(4-Ethyl-pyridin-2-yl)-2-[1-(4-methoxy-benzyl)-3,4-dimethyl-5-oxo-2,5-dihydro-1H-pyrrol-2-ylsulfanyl]-acetamide], on Liver GK, the EC50 was 17.3 µM and the activation at 50 µM amounted to 82%. On Pancreas GK, this compound yielded an EC50 of 24.1 µM and an activation at 50 µM of 70%.

With `COc1ccc(CN2C(=O)C(C)=C(C)C2OCC(=O)Nc2ccc(C)cn2)cc1` (stereo not shown) [Compound 28, 2-[1-(4-Methoxy-benzyl)-3,4-dimethyl-5-oxo-2,5-dihydro-1H-pyrrol-2-yloxy]-N-(5-methyl-pyridin-2-yl)-acetamide], on Liver GK, the EC50 came out at 14.2 µM, the “EC100%” value is greater than 50 µM and the activation at 50 µM worked out at 90%. In addition, on Pancreas GK, the EC50 came to 18.5 µM and the “EC100%” value is greater than 50 µM.

The record behind these values is patent US8680122B2, “Substituted pyrrolones as allosteric modulators of glucokinase” (Janssen Pharmacetica N.V., priority 2005, dated 2014).
